Tests used:
[1] = molecular target: T1, FOXO1 (Homo sapiens, UniProt Q12778); assay: Cellular Thermal Shift Assay (CETSA) in K562 cells, FOXO1; format: binding; settings: 1 μM
T1 construct: performed against the FOXO isoforms expressed in K562 cells; endogenous in cells; host or cells: K562
Description: K562 cells (ATCC) were maintained in appropriate volume of RPMI medium supplemented with 10% fetal bovine serum (Serum Plus—II, Sigma MO, USA), 100 units/mL penicillin and 100 […] (Corning, VA, USA). Short-term passages (<15) were used for all experiments. For CETSA, K562 cell were freshly seeded the day before the experiment. The day of experiment, equal numbers of cells were counted by Moxi Mini automated cell counter (Orflo) and 0.6×10^6 cells per data point were seeded in T-25 cell culture flasks (VWR, PA, USA) in appropriate volume of culture medium. Cells were exposed to […] AS1842856 or equal volume DMSO for 3 hours in an incubator with 5% CO2 and 37° C. […] The supernatants were transferred to new microcentrifuge tubes and analyzed by SDS-PAGE followed by immunoblotting analysis. […] Immunoblotting results were subjected to densitometric analysis (Image J) and melting temperatures of FOXO1, FOXO3 and FOXO4 were determined by Prism 7 (GraphPad) using nonlinear least-squares regression fit to Y=100/(1+10^(Log IC50−X)*H), where H=Hill slope (variable). The viability of the cells was assessed in triplicate by trypan blue exclusion. […]
Briefly, K562 cells were treated with increasing concentrations of the FOXO1 inhibitor AS1842856 just after HIVGKO infection. After 3-4 days, the percentage of latent cells and productive cells were quantified by FACS. […]

[2] = molecular target: T2, FOXO4 (Homo sapiens, UniProt P98177); assay: Cellular Thermal Shift Assay (CETSA) in K562 cells, FOXO4; format: binding; settings: 1 μM
T2 construct: performed against the FOXO isoforms expressed in K562 cells; endogenous in cells; host or cells: K562
Description: K562 cells (ATCC) were maintained in appropriate volume of RPMI medium supplemented with 10% fetal bovine serum (Serum Plus—II, Sigma MO, USA), 100 units/mL penicillin and 100 […] (Corning, VA, USA). Short-term passages (<15) were used for all experiments. For CETSA, K562 cell were freshly seeded the day before the experiment. The day of experiment, equal numbers of cells were counted by Moxi Mini automated cell counter (Orflo) and 0.6×10^6 cells per data point were seeded in T-25 cell culture flasks (VWR, PA, USA) in appropriate volume of culture medium. […] The supernatants were transferred to new microcentrifuge tubes and analyzed by SDS-PAGE followed by immunoblotting analysis. […] Immunoblotting results were subjected to densitometric analysis (Image J) and melting temperatures of FOXO1, FOXO3 and FOXO4 were determined by Prism 7 (GraphPad) using nonlinear least-squares regression fit to Y=100/(1+10^(Log IC50−X)*H), where H=Hill slope (variable). The viability of the cells was assessed in triplicate by trypan blue exclusion.
Whether the effect of AS1842856 was mediated by its interaction with FOXO1 was confirmed. […] AS1842856-FOXO binding was considered ‘positive’ if there was a significant change in the thermal profile of the protein between the presence and the absence of the drug assessed by western blot (FIG. 2, Panel A). […]

T2 sequence (P98177 whole entry, canonical isoform): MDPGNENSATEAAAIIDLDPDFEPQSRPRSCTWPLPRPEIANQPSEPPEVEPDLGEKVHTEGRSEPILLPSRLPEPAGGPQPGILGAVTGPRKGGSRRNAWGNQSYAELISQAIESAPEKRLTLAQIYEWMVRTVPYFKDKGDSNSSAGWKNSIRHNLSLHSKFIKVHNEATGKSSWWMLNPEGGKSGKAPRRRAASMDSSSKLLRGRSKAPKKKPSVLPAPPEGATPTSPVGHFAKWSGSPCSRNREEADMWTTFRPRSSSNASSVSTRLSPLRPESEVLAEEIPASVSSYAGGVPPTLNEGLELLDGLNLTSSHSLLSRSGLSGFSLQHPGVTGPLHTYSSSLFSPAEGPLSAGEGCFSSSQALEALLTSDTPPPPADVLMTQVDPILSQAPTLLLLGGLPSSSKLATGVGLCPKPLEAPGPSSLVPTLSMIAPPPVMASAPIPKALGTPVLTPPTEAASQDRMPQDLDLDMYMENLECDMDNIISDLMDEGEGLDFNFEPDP
T1 sequence (Q12778 whole entry, canonical isoform): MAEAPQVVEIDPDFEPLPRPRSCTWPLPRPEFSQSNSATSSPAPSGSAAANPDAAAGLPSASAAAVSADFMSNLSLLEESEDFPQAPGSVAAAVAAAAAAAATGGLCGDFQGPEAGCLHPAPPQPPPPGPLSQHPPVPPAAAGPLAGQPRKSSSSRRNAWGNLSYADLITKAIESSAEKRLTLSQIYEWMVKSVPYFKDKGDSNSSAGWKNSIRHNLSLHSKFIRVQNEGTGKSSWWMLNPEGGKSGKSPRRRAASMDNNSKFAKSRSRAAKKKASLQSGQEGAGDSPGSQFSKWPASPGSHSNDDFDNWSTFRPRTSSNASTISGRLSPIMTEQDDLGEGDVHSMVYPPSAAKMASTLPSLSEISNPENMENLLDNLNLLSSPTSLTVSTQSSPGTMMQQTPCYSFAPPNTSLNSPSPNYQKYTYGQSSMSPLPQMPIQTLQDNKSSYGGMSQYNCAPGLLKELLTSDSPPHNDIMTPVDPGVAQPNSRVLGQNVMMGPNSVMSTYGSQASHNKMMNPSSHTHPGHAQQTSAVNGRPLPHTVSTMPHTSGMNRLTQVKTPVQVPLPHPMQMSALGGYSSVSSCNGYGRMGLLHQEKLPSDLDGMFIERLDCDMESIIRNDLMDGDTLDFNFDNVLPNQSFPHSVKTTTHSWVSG

Structure (SMILES): CCn1cc(C(=O)O)c(=O)c2c(N)c(F)c(NC3CCCCC3)cc21 [AS1842856, 5-amino-7-(cyclohexylamino)-1-ethyl-6-fluoro-4-oxo-1,4-dihydro-quinoline-3-carboxylic acid]
- shift in FOXO1 melting curve [1]: 7.23 °C
- change in FOXO4 melting curve [2]: no changes
